Source: PubChem BioAssay AID328 (DTP/NCI, 2004)
“And” between values parts separate entries of the source, which are not always exact repeats. Equal values may be shown once. Inconclusive results and toxic doses are left out.

Test system: BDF1 mice, P388 leukemia ip, median survival T/C
Assay: NCI In Vivo Anticancer Drug Screen. Data for tumor model P388 Leukemia (intraperitoneal) in B6D2F1 (BDF1) mice
Conditions: endpoint: median survival time, higher = longer survival
How it was run: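 In tumour-bearing mice, survival after compound treatment is set against the vehicle group and given as a quotient.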

[1] = dose: 100.0 mg/kg/injection, schedule: Q01DX009 (ip), vehicle: saline with Tween-80
[2] = dose: 200.0 mg/kg/injection, schedule: Q01DX009 (ip), vehicle: saline with Tween-80
[3] = dose: 200.0 mg/kg/injection, schedule: Q04DX003 (ip), vehicle: saline with Tween-80
[4] = dose: 100.0 mg/kg/injection, schedule: Q04DX003 (ip), vehicle: saline with Tween-80
[5] = dose: 400.0 mg/kg/injection, schedule: Q04DX003 (ip), vehicle: saline with Tween-80
[6] = dose: 6.25 mg/kg/injection, schedule: Q01DX009 (ip), vehicle: saline
[7] = dose: 25.0 mg/kg/injection, schedule: Q04DX003 (ip), vehicle: saline
[8] = dose: 400.0 mg/kg/injection, schedule: Q01DX009 (ip), vehicle: saline with Tween-80
[9] = dose: 12.5 mg/kg/injection, schedule: Q01DX009 (ip), vehicle: saline
[10] = dose: 100.0 mg/kg/injection, schedule: Q04DX003 (ip), vehicle: saline
[11] = dose: 100.0 mg/kg/injection, schedule: Q01DX009 (ip), vehicle: saline
[12] = dose: 200.0 mg/kg/injection, schedule: Q01DX009 (ip), vehicle: saline
[13] = dose: 50.0 mg/kg/injection, schedule: Q01DX005 (ip), vehicle: saline with Tween-80
[14] = dose: 100.0 mg/kg/injection, schedule: Q01DX005 (ip), vehicle: saline with Tween-80
[15] = dose: 200.0 mg/kg/injection, schedule: Q01DX005 (ip), vehicle: saline with Tween-80
[16] = dose: 25.0 mg/kg/injection, schedule: Q01DX009 (ip), vehicle: saline
[17] = dose: 50.0 mg/kg/injection, schedule: Q01DX009 (ip), vehicle: saline

O=C(CCC(=O)[O][Sn]([c]1ccccc1)([c]1ccccc1)[c]1ccccc1)[O][Sn]([c]1ccccc1)([c]1ccccc1)[c]1ccccc1
T/C (dose: 0.39 mg/kg/injection, schedule: Q01DX009 (ip), vehicle: Klucel (hydroxypropylcellulose) (HPC)): 113 % of control
T/C (dose: 0.78 mg/kg/injection, schedule: Q01DX009 (ip), vehicle: Klucel (hydroxypropylcellulose) (HPC)): 95 % of control
T/C (dose: 1.56 mg/kg/injection, schedule: Q01DX009 (ip), vehicle: Klucel (hydroxypropylcellulose) (HPC)): 95 % of control
T/C (dose: 3.12 mg/kg/injection, schedule: Q01DX009 (ip), vehicle: Klucel (hydroxypropylcellulose) (HPC)): 100 % of control and 104 % of control
T/C (dose: 12.5 mg/kg/injection, schedule: Q01DX009 (ip), vehicle: Klucel (hydroxypropylcellulose) (HPC)): 120 % of control
T/C (dose: 40.0 mg/kg/injection, schedule: Q04DX003 (ip), vehicle: Klucel (hydroxypropylcellulose) (HPC)): 104 % of control

CCOC(=O)/C=C(C)/C=C/C=C(C)/C=C/c1c(C)cc(OC)c(C)c1C
T/C (dose: 50.0 mg/kg/injection, schedule: Q01DX009 (ip), vehicle: saline with Tween-80): 96 % of control
T/C [1]: 91 % of control
T/C [2]: 98 % of control

NC(=O)NC1C(c2ccccc2)=NOC1C(N)=O (configuration not stated)
T/C (dose: 100.0 mg/kg/injection, schedule: Q01DX009 (ip), vehicle: Klucel (hydroxypropylcellulose) (HPC)): 105 % of control
T/C (dose: 200.0 mg/kg/injection, schedule: Q01DX009 (ip), vehicle: Klucel (hydroxypropylcellulose) (HPC)): 100 % of control

C1CC2CCC[N]3C2C(C1)[O][Pb]31[O]C2CCCC3CCC[N]1C32 (configuration not stated)
T/C (dose: 133.0 mg/kg/injection, schedule: Q04DX003 (ip), vehicle: saline with Tween-80): 96 % of control and 100 % of control
T/C [3]: 100 % of control and 104 % of control
T/C (dose: 300.0 mg/kg/injection, schedule: Q04DX003 (ip), vehicle: saline with Tween-80): 95 % of control and 104 % of control

COC(=O)c1cc(C)n(C)c(=O)c1CNS(=O)(=O)c1ccccc1
T/C [4]: 98 % of control
T/C [3]: 100 % of control
T/C [5]: 98 % of control

c1cc(CC2CO2)c2c(c1CC1CO1)OCCOCCOCCOCCO2 (configuration not stated)
T/C (dose: 15.0 mg/kg/injection, schedule: Q01DX009 (ip), vehicle: saline + alcohol): 100 % of control
T/C (dose: 30.0 mg/kg/injection, schedule: Q01DX009 (ip), vehicle: saline + alcohol): 106 % of control
T/C (dose: 60.0 mg/kg/injection, schedule: Q01DX009 (ip), vehicle: saline + alcohol): 109 % of control
T/C (dose: 120.0 mg/kg/injection, schedule: Q01DX009 (ip), vehicle: saline + alcohol): 111 % of control

Cc1c2cc3c(cc2cc2c4cc5c(cc4cc[n+]12)OCO5)OCO3 (tested in a mixture with another compound)
T/C (dose: 3.0 mg/kg/injection, schedule: Q04DX003 (ip), vehicle: saline): 159 % of control
T/C (dose: 3.13 mg/kg/injection, schedule: Q01DX009 (ip), vehicle: saline): 98 % of control
T/C (dose: 5.56 mg/kg/injection, schedule: Q04DX003 (ip), vehicle: saline): 150 % of control and 177 % of control
T/C [6]: 89 % of control
T/C (dose: 6.25 mg/kg/injection, schedule: Q04DX003 (ip), vehicle: saline): 170 % of control
T/C (dose: 8.33 mg/kg/injection, schedule: Q04DX003 (ip), vehicle: saline): 172 % of control and 200 % of control
T/C (dose: 12.5 mg/kg/injection, schedule: Q04DX003 (ip), vehicle: saline): 150 % of control and 177 % of control and 190 % of control
T/C (dose: 18.7 mg/kg/injection, schedule: Q04DX003 (ip), vehicle: saline): 113 % of control
T/C [7]: 95 % of control

COc1ccc2[nH]c3cc(Cl)ccc3c(=O)c2c1
T/C [1]: 100 % of control
T/C [2]: 100 % of control
T/C [8]: 90 % of control

Cc1ncc([N+](=O)[O-])n1CCSC(N)=O
T/C [4]: 120 % of control
T/C [3]: 160 % of control

c1cc[c]([Pb]([c]2ccccc2)([c]2ccccc2)[n]2cccc2)cc1
T/C (dose: 3.12 mg/kg/injection, schedule: Q01DX009 (ip), vehicle: saline): 90 % of control
T/C [6]: 109 % of control
T/C [9]: 109 % of control
T/C (dose: 21.25 mg/kg/injection, schedule: Q04DX003 (ip), vehicle: Klucel (hydroxypropylcellulose) (HPC)): 100 % of control
T/C (dose: 42.5 mg/kg/injection, schedule: Q04DX003 (ip), vehicle: Klucel (hydroxypropylcellulose) (HPC)): 113 % of control

COc1ccc2c(c1)CCNC2CCO (configuration not stated)
T/C [7]: 120 % of control
T/C (dose: 50.0 mg/kg/injection, schedule: Q04DX003 (ip), vehicle: saline): 110 % of control
T/C [10]: 120 % of control

c1ccc(C2=C([P+](c3ccccc3)(c3ccccc3)c3ccccc3)CCN2)cc1
T/C (dose: 12.5 mg/kg/injection, schedule: Q01DX009 (ip), vehicle: saline with Tween-80): 100 % of control

C[C@]12CCC(=O)C=C1CC[C@@H]1[C@@H]2[C@@H](O)C[C@@]2(C)[C@H]1CC[C@]2(O)C(=O)COC(=O)c1ccc([N+](=O)[O-])cc1Cl
T/C [4]: 100 % of control
T/C [3]: 107 % of control
T/C [5]: 103 % of control

O=C(O)C1C2CCCCC21 (configuration not stated)
T/C [1]: 109 % of control
T/C [11]: 113 % of control
T/C [2]: 100 % of control
T/C [12]: 109 % of control
T/C [8]: 95 % of control
T/C (dose: 400.0 mg/kg/injection, schedule: Q01DX009 (ip), vehicle: saline): 104 % of control

O=C(O)C1CCCN1C(=O)c1ccc(Cl)c(Cl)c1 (configuration not stated)
T/C [13]: 100 % of control
T/C [14]: 93 % of control
T/C [15]: 99 % of control

Cc1cc(N(CCOS(C)(=O)=O)CCOS(C)(=O)=O)ccc1C=O
T/C (dose: 12.5 mg/kg/injection, schedule: Q04DX003 (ip), vehicle: saline with Tween-80): 231 % of control
T/C (dose: 25.0 mg/kg/injection, schedule: Q04DX003 (ip), vehicle: saline with Tween-80): 120 % of control

Cn1ncc2c(N)ncnc21
T/C (dose: 0.75 mg/kg/injection, schedule: Q01DX009 (ip), vehicle: Klucel (hydroxypropylcellulose) (HPC)): 100 % of control
T/C (dose: 1.5 mg/kg/injection, schedule: Q01DX009 (ip), vehicle: Klucel (hydroxypropylcellulose) (HPC)): 100 % of control
T/C (dose: 3.0 mg/kg/injection, schedule: Q01DX009 (ip), vehicle: Klucel (hydroxypropylcellulose) (HPC)): 109 % of control
T/C (dose: 6.0 mg/kg/injection, schedule: Q01DX009 (ip), vehicle: Klucel (hydroxypropylcellulose) (HPC)): 122 % of control

Cc1noc(C)c1CON
T/C [9]: 91 % of control
T/C [16]: 91 % of control
T/C [17]: 95 % of control

CN(C)CCCNc1ccc(O)c2c1C(=O)c1ccccc1C2=O
T/C [6]: 91 % of control
T/C [9]: 110 % of control and 114 % of control
T/C [16]: 103 % of control and 109 % of control and 112 % of control
T/C [10]: 96 % of control
T/C (dose: 200.0 mg/kg/injection, schedule: Q04DX003 (ip), vehicle: saline): 112 % of control

NCCNCC[OH2+].NCCNCC[OH2+].[Cu+2].[O-][Cl+3]([O-])([O-])[O-]
T/C [9]: 100 % of control
T/C [16]: 105 % of control

CC(=O)Nc1ccn(C2OC(COC(C)=O)C(OC(C)=O)C2OC(C)=O)c(=O)n1 (configuration not stated)
T/C [4]: 109 % of control
T/C (dose: 177.0 mg/kg/injection, schedule: Q04DX003 (ip), vehicle: saline with Tween-80): 104 % of control
T/C (dose: 266.0 mg/kg/injection, schedule: Q04DX003 (ip), vehicle: saline with Tween-80): 100 % of control and 116 % of control
T/C [5]: 108 % of control and 118 % of control

CC(C)=CCNc1ncnc2nc[nH]c12
T/C (dose: 10.0 mg/kg/injection, schedule: Q01DX009 (ip), vehicle: saline with Tween-80): 104 % of control
T/C (dose: 20.0 mg/kg/injection, schedule: Q01DX009 (ip), vehicle: saline with Tween-80): 104 % of control
T/C (dose: 20.0 mg/kg/injection, schedule: Q04DX003 (ip), vehicle: saline with Tween-80): 95 % of control
T/C (dose: 40.0 mg/kg/injection, schedule: Q04DX003 (ip), vehicle: saline with Tween-80): 95 % of control
T/C (dose: 80.0 mg/kg/injection, schedule: Q04DX003 (ip), vehicle: saline with Tween-80): 100 % of control

CS(=O)(=O)c1ncc(Br)cn1
T/C [13]: 103 % of control
T/C [17]: 111 % of control
T/C [14]: 109 % of control
T/C [11]: 124 % of control
T/C [15]: 117 % of control
T/C [12]: 120 % of control
T/C (dose: 400.0 mg/kg/injection, schedule: Q01DX005 (ip), vehicle: saline with Tween-80): 120 % of control

O=C(CNC(=O)c1cccc(C(=O)NCC(=O)Nc2ccc(C3=NCCN3)cc2)c1)Nc1ccc(C2=NCCN2)cc1
T/C (dose: 8.2 mg/kg/injection, schedule: Q01DX009 (ip), vehicle: saline): 117 % of control
T/C [16]: 169 % of control
T/C [17]: 250 % of control

N/C(=N/N=C/c1ccncc1)N[N+](=O)[O-]
T/C [17]: 90 % of control
